Measurements: patent US20180258100A1, “RAPAMYCIN ANALOGS SHOWING IMPROVED mTORC1 SPECIFICITY” (priority 2015, published 2018)

Columns and labels:
[1] = Glucose challenge response; assay type: in vivo, female C57BL/6J mice; conditions: 2 mg/kg glucose after 1 week; rapamycin 8 mg/kg, compound 390 12 mg/kg i.p. every other day
Protocol: (§1) 10-week old female C57BL/6J mice were given intraperitoneal injections of 8 mg/kg rapamycin (LC laboratories), 12 mg/kg compound 390 or vehicle every other day for three weeks (N=5 mice/group), such as to mimic chronic exposure conditions. 24 hours after the last injection, tissues were dissected from the mice and immediately frozen in liquid nitrogen. The tissues were homogenized using the Omni TH homogenizer (Omni International) on ice in RIPA buffer and then centrifuged at 13,000 rpm for 15 minutes at 4° C. The supernatants were collected and protein concentration was determined using the DC protein assay (Biorad).
Steady state glucose levels were determined after one week from study initiation using a Bayer Contour blood glucose meter and test strips from small blood samples, which were withdrawn from a tail vein nick. […]

[2] = Insulin challenge response; assay type: in vivo, female C57BL/6J mice; conditions: 0.75 IU/kg insulin after 2 weeks; rapamycin 8 mg/kg, compound 390 12 mg/kg i.p. every other day
Protocol: FIG. 10. Response to insulin challenge following administration of 0.75 IU/kg insulin at t=2 weeks following the initiation of the intraperitoneal administrations of 8 mg/kg rapamycin, 12 mg/kg compound 390 or vehicle control every other day in female mice (N=5).
as §1

[3] = Plasma lipid levels after chronic i.p. dosing; assay type: in vivo, female C57BL/6J mice; conditions: rapamycin 8 mg/kg, compound 390 12 mg/kg i.p. every other day; versus vehicle
Protocol: as §1
Plasma lipid levels were determined at the end of the three-week exposure. Free fatty acids in the serum were measured by the HR Series NEFA-HR(2) (Wako Diagnostics, Richmond, Va.). Triglycerides and cholesterol in serum were measured by Triglycerides Liquicolor Test and Cholesterol Liquicolor Test (Stanbio laboratory, Boerne, Tex.), respectively.

mTORC2 = biological target: T1, mTORC2 (Homo sapiens, UniProt P42345+P62942); test: Western blot of PC3 cells, 24 h at 100 nM, comparison with commercial rapalogs, mTORC2 (p-Akt); assay type: cell-based; conditions: PC-3, read-out: mTORC2 (p-Akt) activity, % of control
T1 construct: endogenous in cells; host or cells: PC3 cells
Protocol: (§2) PC3 cells were maintained in F12K media supplemented with 10% FBS, 1% Penicillin/Streptomycin, and 2 mM L-Glutamine and cultured at 37° C. Cells were treated with 100 nM Rapamycin, Temsirolimus, Everolimus, and rapalog compounds 390, 394, 824, 384 or 405 for 24 h and harvested in RIPA buffer (300 mM NaCl, 1.0% NP-40, 0.5% sodium deoxycholate, 0.1% SDS, 50 mM Tris pH 8.0. Protein concentrations were determined using the DC protein assay (Biorad).
(§3) Equal amounts of protein were resolved by SDS-PAGE and transferred to nitrocellulose membrane using the Invitrogen Nu-Page system. The membranes were blocked for 1 h in 5% milk and incubated overnight in the appropriate antibodies. The following day, blots were washed 3 times in TBST, incubated for 2 h with secondary antibodies (donkey anti rabbit hrp conjugated), and finally washed an additional 3 times in TBST. ECL Prime (Amersham) was used to detect the proteins of interest and blots were quantified using ImageJ software.

[4] = Steady state glucose levels after one week of i.p. dosing; assay type: in vivo, female C57BL/6J mice; conditions: 8 mg/kg i.p. every other day
Protocol: as §1
Steady state glucose levels were determined after one week from study initiation using a Bayer Contour blood glucose meter and test strips from small blood samples, which were withdrawn from a tail vein nick. At the end of the second week, the animals were challenged by administration of 2 mg/kg glucose; glucose levels were determined for two hours following the challenge at 30 min intervals.

[5] = Glucose tolerance test after 2 weeks of chronic dosing; assay type: in vivo, male C57BL/6J mice; conditions: rapamycin 8 mg/kg, compound 390 12 mg/kg every other day, male mice
Protocol: Fortyfive C57BL/6J male mice, housed three per cage, were weighed and their body composition was measured with an EchoMRI 3-in-1 system. […] Mice received every-other-day injections of either vehicle, rapamycin (8 mg/kg), or compound 390 (12 mg/kg). A glucose tolerance test was performed after 2 weeks (morning after the 8th injection). A pyruvate tolerance test was performed after 3 weeks. Glucose stimulated insulin secretion assay was performed after 4 weeks and additional blood was collected for whole blood analysis. Body composition was measured on day −2 and day 31.
Mice were fasted overnight for 16 hours and then injected with either glucose (1 g/kg) or pyruvate (2 g/kg) intraperitoneally. For glucose and pyruvate tolerance tests, small blood samples were taken from a tail vein nick at time intervals and read using a Bayer Contour blood glucose meter and test strips. For glucose-stimulated insulin secretion, blood glucose levels were read using a glucometer and then 50 μL of blood was collected into a heparinized tube immediately prior to and 15 minutes following glucose administration. Insulin levels were determined using a Mouse Insulin ELISA kit (Crystal Chem).

[6] = Fat mass by EchoMRI body composition after four weeks; assay type: in vivo, male C57BL/6J mice; conditions: 4 weeks of every other day administration; rapamycin 8 mg/kg, compound 390 12 mg/kg; versus vehicle
Protocol: Fortyfive C57BL/6J male mice, housed three per cage, were weighed and their body composition was measured with an EchoMRI 3-in-1 system. Cages were sorted into three groups—vehicle, rapamycin, and compound 390—such that the average weight was similar for all three groups. Mice received every-other-day injections of either vehicle, rapamycin (8 mg/kg), or compound 390 (12 mg/kg). A glucose tolerance test was performed after 2 weeks (morning after the 8th injection). A pyruvate tolerance test was performed after 3 weeks. Glucose stimulated insulin secretion assay was performed after 4 weeks and additional blood was collected for whole blood analysis. Body composition was measured on day −2 and day 31.

mTORC1 = biological target: T2, mTORC1 (Homo sapiens, UniProt P42345+P62942); test: Western blot of PC3 cells, 24 h at 100 nM, comparison with commercial rapalogs, mTORC1 (p-S6K); assay type: cell-based
T2 construct: endogenous in cells; host or cells: PC3 cells
Protocol: as §2, §3

T1 sequence (P62942 2-108 limits assumed, other chains not shown): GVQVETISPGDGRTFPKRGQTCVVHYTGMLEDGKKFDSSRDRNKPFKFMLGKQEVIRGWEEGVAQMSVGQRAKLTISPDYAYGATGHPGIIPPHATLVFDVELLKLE

CO[C@H]1C[C@@H]2CC[C@@H](C)[C@@](O)(O2)C(=O)C(=O)N2CCCC[C@H]2C(=O)O[C@H]([C@H](C)C[C@@H]2CC[C@@H](O)[C@H](OC)C2)CC(=O)[C@H](C)/C=C(\C)[C@@H](O)[C@@H](OC)C(=O)[C@H](C)C[C@H](C)/C=C/C=C/C=C/1C [Rapamycin]
glucose response after glucose challenge (glucose intolerance) [1]: deviates significantly from the response observed with the control animals | glucose response after insulin challenge (insulin resistance) [2]: deviates significantly from the response observed with the control animals | plasma free fatty acids [3]: substantial and statistically significant increase | remaining activity at 0.1 µM (mTORC2): ~5% | glucose steady state level [4]: ~75 mg/dL | increase of glucose steady state level from baseline [4]: approx. 55% | increase of glucose steady state level versus vehicle-receiving animals [4]: 3 fold | glucose tolerance test ([5]; after 2 weeks): impaired glucose and pyruvate tolerance tests | fasting hyperglycemia ([5]; chronic dosing): induced | fat mass (adiposity) [6]: statistically significant increase of fat mass

CO[C@H]1C[C@@H]2CC[C@@H](C)[C@@](O)(O2)C(=O)C(=O)N2CCCC[C@H]2C(=O)O[C@H]([C@H](C)C[C@@H]2CC[C@@H](OCCO)[C@H](OC)C2)CC(=O)[C@H](C)/C=C(\C)[C@@H](O)[C@@H](OC)C(=O)[C@H](C)C[C@H](C)/C=C/C=C/C=C/1C [Everolimus]
remaining activity at 0.1 µM (mTORC2): ~5% | mTORC1 (p-S6K) inhibition (mTORC1): performed identically to rapamycin

CO[C@H]1C[C@@H]2CC[C@@H](C)[C@@](O)(O2)C(=O)C(=O)N2CCCC[C@H]2C(=O)O[C@H]([C@H](C)C[C@@H]2CC[C@@H](OC(=O)C(C)(CO)CO)[C@H](OC)C2)CC(=O)[C@H](C)/C=C(\C)[C@@H](O)[C@@H](OC)C(=O)[C@H](C)C[C@H](C)/C=C/C=C/C=C/1C [Temsirolimus]
remaining activity at 0.1 µM (mTORC2): ~5% | mTORC1 (p-S6K) inhibition (mTORC1): performed identically to rapamycin
